{"source": "patent US4091114A", "about": "“Pharmaceutically active 2-omega-aminoalkoxydiphenylmethanes” (Mitsubishi Chemical Industries Limited, priority 1976, dated 1978)", "key": {"[1]": {"tested_on": "reserpine induced hypothermia", "assay": "Antireserpine activity in mice (antagonism of reserpine induced hypothermia)", "assay_type": "in vivo"}, "[2]": {"assay": "in vivo", "conditions": "mouse, ip"}, "[3]": {"tested_on": "mice", "conditions": "mouse, in vivo, ip"}, "[4]": {"conditions": "mice, i.p., reserpine 5 mg/kg i.p., Amitriptyline = 1"}}, "note": "Counter-ions that a name gives are not always drawn."}
{"smiles": "CN(C)CCCCCOc1ccccc1Cc1ccccc1", "note": "[2-(5-dimethylaminopentyloxy)diphenylmethane hydrochloride]", "values": [{"measurement": "Antireserpine activity, Relative Potency", "setting": "[1]; [4]", "value": 0.23}, {"measurement": "antidepressant activity (in words)", "setting": "[1]; mouse, in vivo", "value": "inferior antidepressant activity"}]}
{"smiles": "CN(C)CCCOc1ccccc1Cc1ccccc1", "note": "[2-(3-dimethylaminopropoxy)diphenylmethane hydrochloride]", "values": [{"measurement": "antidepressant activity (in words)", "setting": "[1]; mouse, in vivo", "value": "no such activity"}]}
{"smiles": "c1ccc(Cc2ccccc2OCCCCN2CCCCC2)cc1", "note": "[2-[4-(1-piperidyl)butoxy]diphenylmethane hydrochloride]", "values": [{"measurement": "Antireserpine activity, Relative Potency", "setting": "[1]; [4]", "value": 0.41}]}
{"smiles": "CNCCCCCOc1ccccc1Cc1ccccc1", "note": "[2-(5-methylaminopentyloxy)diphenylmethane hydrochloride]", "values": [{"measurement": "Antireserpine activity, Relative Potency", "setting": "[1]; mouse, in vivo", "value": 0.54}, {"measurement": "LD50", "setting": "[2]", "value": 160, "unit": "mg/kg"}]}
{"smiles": "CCNCCCCOc1ccccc1Cc1ccccc1", "note": "[2-(4-ethylaminobutoxy)diphenylmethane hydrochloride]", "values": [{"measurement": "Antireserpine activity, Relative Potency", "setting": "[1]; mouse, in vivo", "value": 0.53}, {"measurement": "LD50", "setting": "[2]", "value": 120, "unit": "mg/kg"}]}
{"smiles": "CN(C)CCCCOc1ccccc1Cc1ccccc1.Cl", "note": "[2-(4-dimethylaminobutoxy) diphenyl methane hydrochloride]", "values": [{"measurement": "Antireserpine activity, Relative Potency", "setting": "[1]; mouse, in vivo", "value": 0}]}
{"smiles": "CN(C)CCC=C1c2ccccc2CCc2ccccc21", "note": "[Amitriptyline]", "values": [{"measurement": "LD50", "setting": "[3]", "value": 65, "unit": "mg/kg"}]}
